Source: ChEMBL document CHEMBL1201862, “PubChem BioAssay data set” (2004)
Values belong to the compound of their own block, whether it stands above or below them. The source made the active and inactive calls.

Assays:
[1] = molecular target: T1, Nucleotide-binding oligomerization domain-containing protein 1 (Homo sapiens, UniProt Q9Y239); assay: blockers of NOD1 pathway activity – revised, SAR follow-up (AID 2333); format: functional
T1 sequence (Q9Y239 whole entry): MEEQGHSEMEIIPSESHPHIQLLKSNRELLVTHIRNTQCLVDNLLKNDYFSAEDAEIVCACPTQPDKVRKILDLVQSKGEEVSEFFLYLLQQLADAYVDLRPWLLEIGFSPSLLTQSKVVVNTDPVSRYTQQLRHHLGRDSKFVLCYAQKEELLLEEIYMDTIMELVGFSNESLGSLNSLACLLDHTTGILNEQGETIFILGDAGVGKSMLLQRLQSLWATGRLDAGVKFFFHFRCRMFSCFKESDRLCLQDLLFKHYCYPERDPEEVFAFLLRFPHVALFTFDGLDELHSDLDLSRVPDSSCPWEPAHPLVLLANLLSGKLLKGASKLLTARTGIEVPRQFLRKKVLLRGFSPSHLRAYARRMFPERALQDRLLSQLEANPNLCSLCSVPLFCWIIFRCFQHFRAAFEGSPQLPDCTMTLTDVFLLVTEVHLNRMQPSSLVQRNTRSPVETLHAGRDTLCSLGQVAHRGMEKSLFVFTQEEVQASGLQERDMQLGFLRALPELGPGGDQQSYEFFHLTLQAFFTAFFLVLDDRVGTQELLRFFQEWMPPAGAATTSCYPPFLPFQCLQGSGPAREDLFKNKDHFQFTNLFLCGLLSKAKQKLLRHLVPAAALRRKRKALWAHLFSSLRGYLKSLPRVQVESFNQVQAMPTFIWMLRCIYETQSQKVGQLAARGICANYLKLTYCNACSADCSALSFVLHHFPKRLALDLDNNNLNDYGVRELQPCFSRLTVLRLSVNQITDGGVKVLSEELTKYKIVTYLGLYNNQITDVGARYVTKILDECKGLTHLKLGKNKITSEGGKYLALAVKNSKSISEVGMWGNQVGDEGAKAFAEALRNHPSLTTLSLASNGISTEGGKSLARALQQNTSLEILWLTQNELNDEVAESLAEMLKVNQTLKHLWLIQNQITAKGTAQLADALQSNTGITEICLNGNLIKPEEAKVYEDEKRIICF

HEK293 [2] = assay: cells; format: functional, cell-based; conditions: Homo sapiens
HEK293 [3] = assay: inhibition of NOD1-driven NF-kB reporter – cell-based, luminescence, uHTS, primary screen (AID 1578); format: functional; conditions: Homo sapiens
Tumor necrosis factor = Tumor necrosis factor (Homo sapiens, UniProt P01375); assay: analog potency on TNFa NF-kB signaling – cell-based, revised, SAR follow-up (AID 2337); format: functional
Sequence of Tumor necrosis factor (P01375 whole entry, the tested form may be a part): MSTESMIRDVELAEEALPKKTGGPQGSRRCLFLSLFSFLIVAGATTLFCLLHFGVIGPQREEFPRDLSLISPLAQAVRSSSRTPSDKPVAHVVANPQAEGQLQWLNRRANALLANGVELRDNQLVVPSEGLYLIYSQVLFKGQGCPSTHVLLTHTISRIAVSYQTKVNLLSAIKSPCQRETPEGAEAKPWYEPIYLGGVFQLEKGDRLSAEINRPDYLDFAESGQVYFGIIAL

[4] = molecular target: T2, Nucleotide-binding oligomerization domain-containing protein 2 (Homo sapiens, UniProt Q9HC29); assay: inhibition of NOD2-driven NF-kB reporter – cell-based, luminescence, uHTS, HEK293 (AID 1566); format: functional
T2 sequence (Q9HC29 whole entry, the tested form may be a part): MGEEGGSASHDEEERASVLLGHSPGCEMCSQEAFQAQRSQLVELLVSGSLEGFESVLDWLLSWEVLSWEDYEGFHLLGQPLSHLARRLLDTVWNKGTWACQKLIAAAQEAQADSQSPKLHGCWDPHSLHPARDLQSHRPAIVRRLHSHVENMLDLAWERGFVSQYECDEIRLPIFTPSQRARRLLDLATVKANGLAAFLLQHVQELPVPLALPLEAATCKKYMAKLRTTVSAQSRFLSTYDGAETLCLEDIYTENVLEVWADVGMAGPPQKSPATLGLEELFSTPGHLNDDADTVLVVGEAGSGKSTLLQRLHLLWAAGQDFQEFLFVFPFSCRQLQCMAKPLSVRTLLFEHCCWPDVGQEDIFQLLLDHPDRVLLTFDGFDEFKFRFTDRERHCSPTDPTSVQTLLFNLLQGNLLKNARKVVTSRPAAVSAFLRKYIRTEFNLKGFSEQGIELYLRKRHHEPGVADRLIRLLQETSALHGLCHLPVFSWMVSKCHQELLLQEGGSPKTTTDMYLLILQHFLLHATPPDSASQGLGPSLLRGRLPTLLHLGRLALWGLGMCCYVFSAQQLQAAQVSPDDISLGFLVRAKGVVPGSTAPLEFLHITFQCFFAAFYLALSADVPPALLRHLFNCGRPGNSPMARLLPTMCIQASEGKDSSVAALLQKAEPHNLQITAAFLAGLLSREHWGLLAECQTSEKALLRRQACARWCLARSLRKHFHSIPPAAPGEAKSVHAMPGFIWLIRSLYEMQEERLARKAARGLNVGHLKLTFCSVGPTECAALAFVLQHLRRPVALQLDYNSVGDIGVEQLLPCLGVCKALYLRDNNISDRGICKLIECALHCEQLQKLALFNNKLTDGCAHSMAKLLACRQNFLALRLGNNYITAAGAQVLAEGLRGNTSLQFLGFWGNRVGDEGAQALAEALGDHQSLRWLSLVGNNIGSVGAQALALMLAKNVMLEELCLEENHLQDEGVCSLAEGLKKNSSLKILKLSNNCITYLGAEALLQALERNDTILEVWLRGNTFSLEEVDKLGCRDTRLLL

HEK293 [5] = assay: cells; format: functional, cell-based; conditions: Homo sapiens; remark: listed apart in the source
HEK293 [6] = assay: cells; conditions: Homo sapiens
HEK293 [7] = assay: cells; format: functional, cell-based; conditions: Homo sapiens; remark: listed apart in the source
HEK293 [8] = assay: NOD2 signaling inhibitors in MDP-stimulated cells, cell-based, uHTS, luminescence (AID 2001); format: functional; conditions: Homo sapiens
[9] = molecular target: T2, Nucleotide-binding oligomerization domain-containing protein 2; assay: PubChem AID 2334; format: functional
Cytochrome P450 2C9 = Cytochrome P450 2C9 (Homo sapiens, UniProt P11712)
Sequence of Cytochrome P450 2C9 (P11712 whole entry): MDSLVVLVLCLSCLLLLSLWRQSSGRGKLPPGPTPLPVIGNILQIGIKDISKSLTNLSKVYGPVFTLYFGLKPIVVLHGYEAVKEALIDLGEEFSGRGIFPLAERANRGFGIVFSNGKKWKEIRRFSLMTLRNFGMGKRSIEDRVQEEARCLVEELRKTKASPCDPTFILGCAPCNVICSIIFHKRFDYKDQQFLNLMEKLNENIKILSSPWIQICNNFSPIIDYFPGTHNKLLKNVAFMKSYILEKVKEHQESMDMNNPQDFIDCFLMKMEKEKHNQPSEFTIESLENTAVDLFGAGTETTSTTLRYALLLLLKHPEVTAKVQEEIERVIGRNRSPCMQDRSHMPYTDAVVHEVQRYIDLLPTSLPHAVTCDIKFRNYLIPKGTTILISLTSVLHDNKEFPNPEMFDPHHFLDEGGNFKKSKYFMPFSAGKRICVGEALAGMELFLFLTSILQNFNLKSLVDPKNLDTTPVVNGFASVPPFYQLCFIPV

Cytochrome P450 2D6 = Cytochrome P450 2D6 (Homo sapiens, UniProt P10635);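 also: CYP2D6 member of a cytochrome P450 panel assay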
Sequence of Cytochrome P450 2D6 (P10635 whole entry): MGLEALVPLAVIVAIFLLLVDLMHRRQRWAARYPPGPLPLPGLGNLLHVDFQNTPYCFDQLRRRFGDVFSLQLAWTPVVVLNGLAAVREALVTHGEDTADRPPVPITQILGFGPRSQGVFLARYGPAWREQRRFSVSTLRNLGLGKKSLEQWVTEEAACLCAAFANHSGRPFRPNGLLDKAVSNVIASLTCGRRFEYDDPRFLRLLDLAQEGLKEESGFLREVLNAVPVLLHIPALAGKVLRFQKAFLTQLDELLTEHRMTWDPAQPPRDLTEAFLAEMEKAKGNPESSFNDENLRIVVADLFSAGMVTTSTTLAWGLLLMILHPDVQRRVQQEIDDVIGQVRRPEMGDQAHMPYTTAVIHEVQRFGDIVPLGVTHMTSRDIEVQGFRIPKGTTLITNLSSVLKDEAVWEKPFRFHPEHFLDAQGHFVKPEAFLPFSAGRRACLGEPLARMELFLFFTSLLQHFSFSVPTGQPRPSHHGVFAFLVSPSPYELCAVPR

CAAX prenyl protease 1 = CAAX prenyl protease 1 (Saccharomyces cerevisiae S288c, UniProt P47154); assay: yeast CAAX protease Ste24 inhibition – biochemical, S. cerevisiae, plate reader, cherry-pick, dose response (AID 488815)
Sequence of CAAX prenyl protease 1 (P47154 whole entry): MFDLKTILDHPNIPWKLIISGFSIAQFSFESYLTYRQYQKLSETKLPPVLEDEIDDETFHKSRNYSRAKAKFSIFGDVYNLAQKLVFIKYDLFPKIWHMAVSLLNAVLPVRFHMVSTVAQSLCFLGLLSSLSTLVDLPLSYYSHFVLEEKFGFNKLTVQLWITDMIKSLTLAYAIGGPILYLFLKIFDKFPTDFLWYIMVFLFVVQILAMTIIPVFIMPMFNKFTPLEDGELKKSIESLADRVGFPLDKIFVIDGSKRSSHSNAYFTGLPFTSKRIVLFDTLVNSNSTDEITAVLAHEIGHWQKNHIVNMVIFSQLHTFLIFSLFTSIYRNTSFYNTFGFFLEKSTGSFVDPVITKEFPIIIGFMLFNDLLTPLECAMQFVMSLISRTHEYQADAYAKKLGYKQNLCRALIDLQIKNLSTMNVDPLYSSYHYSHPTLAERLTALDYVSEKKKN

CAAX prenyl protease 2 = CAAX prenyl protease 2 (Saccharomyces cerevisiae S288c, UniProt Q03530); format: biochemical
Sequence of CAAX prenyl protease 2 (Q03530 whole entry): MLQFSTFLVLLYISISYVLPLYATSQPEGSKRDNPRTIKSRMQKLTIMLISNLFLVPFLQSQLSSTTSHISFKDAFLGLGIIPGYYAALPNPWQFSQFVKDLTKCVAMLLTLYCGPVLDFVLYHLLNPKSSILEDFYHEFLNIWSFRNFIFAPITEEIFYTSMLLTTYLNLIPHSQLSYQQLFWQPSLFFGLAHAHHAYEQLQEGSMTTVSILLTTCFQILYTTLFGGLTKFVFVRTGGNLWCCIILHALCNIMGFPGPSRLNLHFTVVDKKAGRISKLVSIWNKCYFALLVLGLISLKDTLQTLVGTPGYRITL

Compound: COc1ccc(NC(C)=O)cc1S(=O)(=O)Nc1ccc(OCc2ccccc2)cc1
IC50 [1]: 12.7 µM (active)
IC50 (HEK293 [2]): > 20 µM (inactive)
EC50 (HEK293 [3]): 13.7 µM (active)
IC50 (Tumor necrosis factor): 18 µM (active)
EC50 [4]: 12.3 µM (active)
IC50 (HEK293 [5]): > 20 µM (inactive)
IC50 (HEK293 [6]): > 20 µM (inactive)
IC50 (HEK293 [7]): > 20 µM (inactive)
IC50 (HEK293 [8]): > 20 µM (inactive)
IC50 [9]: 16.6 µM (active)

AC50 (Cytochrome P450 2C9): 7.94 µM (inconclusive)
AC50 (Cytochrome P450 2D6): inconclusive
Compound: O=[N+]([O-])c1ccc(N2CCOCC2)nc1

AC50 (CAAX prenyl protease 1): 26.5 µM (active)
AC50 (CAAX prenyl protease 2): > 100 µM (inactive)
Compound: Cc1ccc2c(C)c(C(=O)N(Cc3ccc(F)cc3)C3CCS(=O)(=O)C3)oc2c1 (centres undefined)
